# Experimental data reported in publication PMC7367283, “A PIP2 substitute mediates voltage sensor-pore coupling in KCNQ activation” (Communications Biology, 2020).
# “And” between values parts separate entries of the source, which are not always exact repeats. Equal values may be shown once.
# System: guinea pig ventricular myocytes
# Experiment: Action potential recording in ventricular myocytes with normal action potentials
# Assay type: cell-based
# Set-up: actional potential duration (APD), Fig. 7h: unit not given here
# Details: for actional potential duration (APD), Fig. 7h: Control-Group, individual cells
# Description: Fig. 7 Effects of CP1 on IKs and action potentials in cardiomyocytes. a IKs currents in guinea pig ventricular myocytes in the absence and presence of 30 µM CP1 in the whole-cell patch-clamp configuration. Holding potential: −40 mV; testing potentials: −20 to +60 mV with 10-mV increment; returning potential: −20 mV. […] Guinea pig ventricular myocytes were first perfused with 10 µM CP1 and 10 µM chromanol. After APD reached steady state, 10 µM CP1 was constitutively perfused alone. Last, CP1 was washed out for near-full reversal of APD shortening. g Effects of 0.2 µM CP1 on LQT action potentials. To mimic the LQT, 100 µM moxifloxacin was applied 2 h before the treatment of CP1. h Change of action potential duration after application of different [CP1]s (n = 5–7). Tukey–Kramer ANOVA test was used to compare control cells in different CP1 concentration, # is significant at P < 0.05. Unpaired two-tailed Student t tests were used to compare control and moxifloxacin cells at different CP1 concentration: * is significant at P < 0.05.
# In ventricular myocytes, the duration and the morphology of action potentials are determined by various ion channels. Mutations in many of these channels and drugs that modify channel functions, such as an increase in inward Na^+ currents or decrease in outward K^+ currents, may lead to a prolonged action potential duration, which results in an inherited or acquired long QT syndrome that predisposes afflicted patients to cardiac arrhythmia. An enhancement of the outward IKs current may be able to counter these mutations or drug effects, and restore the action potential duration to more normal values. […] Next, we used an IKr blocker (Moxifloxacin, Moxi) to prolong action potentials and then applied various concentrations of CP1.
# The use of guinea pigs was approved by the Stony Brook University Institutional Animal Care and Use Committee. Single ventricular myocytes were acutely enzymatically isolated from guinea pig heart as previously described. Guinea pigs, weighing 300–500 g, were sacrificed by peritoneal injection of sodium pentobarbitone (1 ml, 390 mg/ml). The isolated cells were stored in KB solution containing (in mM) 83 KCl, 30 K2HPO4, 5 MgSO4, 5 Na pyruvate, 5 β-OH-butyric acid, 20 creatine, 20 taurine, 10 glucose, and 0.5 EGTA, pH 7.2.
# Action potentials were recorded with whole-cell patch-clamp recording techniques. Current-clamp configuration was used. Freshly isolated guinea pig cardiac myocytes were placed at 1 Hz with a stimulus of 180-pA amplitude and 10-mS duration. The APD was determined at 90% repolarization. Several minutes were allowed for the APD to reach steady state before data were collected. Typical Tyrode mimic AP Solution for action potential recording was used. The bath solution is composed of (in mM) 140 NaCl, 3 KCl, 1 MgCl2, 1.8 CaCl2, 10 HEPES, and 10 Glucose, pH 7.4. The pipette solution is composed of (in mM) 115 K-aspartic acid, 35 KOH, 3 MgCl2, 10 HEPES, 11 EGTA, 5 Glucose, and 3 MgATP, pH 7.4.
smiles,measurement,setting,value
"O=S(=O)([O-])Oc1c(-c2sc3c(ccc4cccc(Cl)c43)c2OS(=O)(=O)[O-])[nH]c2ccc(Br)cc12.[Na+].[Na+] [CP1, DISODIUM 5-BROMO-2-[9-CHLORO-3-(SULFONATOOXY) NAPHTHO [1,2-B] THIEN-2-YL]-1H-INDOL-3-YL SULFATE]",action potential duration,"0.2 µM CP1, control myocytes",did not alter action potential duration
same,action potential duration (APD),10 µM CP1 alone,significantly shortened
same,action potential duration (APD),10 µM CP1 perfused together with 10 µM chromanol 293B,not changed
same,action potentials in control cells,0.6 and 6 µM CP1,shortened
same,"actional potential duration (APD), Fig. 7h",0.2 µM CP1,682 and 570 and 576 and 550 and 596 and 520
same,"actional potential duration (APD), Fig. 7h",0.6 µM CP1,473 and 609 and 463 and 428 and 542 and 511 and 475
same,"actional potential duration (APD), Fig. 7h",6 µM CP1,347 and 378 and 362 and 454
